The target of series [1] is other tested methyltransferases. In words: Off-target methyltransferase profiling, panel as a whole. It counts as biochemical. The following applies: all panel enzymes other than METTL10. Here is the method:
To evaluate the off‐target effects of LZQ‐02‐023‐01 on methyltransferase activity, a panel of enzymes was assessed using the MTase‐Glo Methyltransferase Assay (Promega), following the manufacturer's instructions. The assay was performed by ICE Bioscience Inc. Briefly, LZQ‐02‐023‐01 was serially diluted 4‐fold in DMSO to generate a 10‐point concentration gradient, and the resulting solutions were dispensed into 384‐well white assay plates using an Echo acoustic liquid handler (Labcyte). Plates were centrifuged at 1000 rpm for 1 min to ensure even compound distribution. Following a 10‐min preincubation at 25 °C, 2 µL of a substrate solution containing S‐adenosylmethionine (SAM) and the specific methyltransferase substrate (Table S7, Supporting Information) was added to each well. After a brief centrifugation, plates were incubated at 25 °C for 180 min to allow the enzymatic methylation reaction to proceed. Subsequently, 1 µL of MTase‐Glo reagent was added, followed by centrifugation and incubation at 25 °C for 45 min. […]
Luminescence signals were directly proportional to methyltransferase activity, were recorded using a microplate reader (BMG LABTECH). Percent inhibition was calculated by normalizing luminescence intensities of compound‐treated wells to DMSO‐treated controls, and IC50 values were calculated using GraphPad Prism 8 software.

Series [2] can be described thus: Acute toxicity, single intraperitoneal injection at escalating doses (LD50). The conditions noted are these: ICR, mouse, in vivo, ip, ICR mice, 24 h survival. Here is the method:
For the acute toxic study, 8‐week‐old ICR mice (n = 6 per group) were administered a single intraperitoneal injection of LZQ‐02‐023‐01 at escalating doses. A vehicle‐treated group served as control. Survival was monitored continuously for 24 h postadministration. Additionally, another cohort of ICR mice (n = 5 per group) received a single intraperitoneal dose of LZQ‐02‐023‐01 at 125 mg/kg and were subsequently monitored daily for 7 days for clinical signs of toxicity, behavioral changes, body weight fluctuations, and mortality. At the conclusion of the observation period, animals were euthanized and subjected to a comprehensive gross necropsy. Major organs, including the liver, kidney, heart, lung, and spleen, were harvested for histopathological examination. For the chronic toxic study, 8‐week‐old ICR mice (n = 5 per group) received daily intraperitoneal injections of LZQ‐02‐023‐01 at a therapeutic dose of 40 mg/kg for 14 consecutive days. A vehicle‐treated group was included as a control. Throughout the treatment period, animals were monitored daily for clinical signs of toxicity and weighed every 2 days. At study termination, blood samples were collected for hematological and biochemical analyses. […]

The test system of series [3] is T1, METTL10.
T1 construct: purchased ICE Bioscience Inc
Kind of series: In vitro (cell-free) methylation of GST-PIAS3 by His-METTL10, immunoblotting. The conditions noted are these: 20 µM or higher; GST-PIAS3 with His-METTL10. It counts as biochemical. Here is the method: For the in vitro methylation assay, His‐METTL10 (1 µg) was incubated with recombinant human Histone H4 protein (20 ng; Abcam, ab198115) or GST‐PIAS3 (100 ng) of in methylation reaction buffer (50 mM Tris‐HCl (pH 8.0), 20 mM KCl, 5 mM DTT, 4 mM EDTA) containing 20 µM S‐(5′‐adenosyl)‐L‐methionine chloride dihydrochloride (SAM) at 37 °C for 1 h. The reaction was terminated by boiling the samples in SDS‐PAGE loading buffer, and the products were analyzed by immunoblotting.
(In general: A western blot detects proteins with antibodies after separation by electrophoresis.)

The test system of series [4] is gastric tumors of Cldn18-AT mice. Kind of series: Cldn18-AT advanced gastric cancer mouse model. The format is in vivo. The following applies: 40 mg/kg/day i.p., 28 days. Here is the method: For the subcutaneous tumor model, 5 × 10⁶ MKN45 cells suspended in 100 µL of sterile PBS were injected subcutaneously into the flanks of BALB/c nude mice. When tumor volumes reached approximately 50 mm^3, mice were randomized into three groups (Vehicle control, LZQ‐02‐023‐01 at 20 mg/kg or 40 mg/kg, n = 10 per group). All treatments were administered via intraperitoneal injection once daily for 14 consecutive days. Tumor volumes were measured every 2 days using calipers and calculated using the formula: volume = [length × (width[2])]/2. Mice were sacrificed on day 24 for endpoint analyses. For genetically engineered mouse models (GEMMs), 25‐week‐old K19‐C2mE mice were randomized into Vehicle control (n = 8) and LZQ‐02‐023‐01 treatment (40 mg/kg, n = 8) groups. Both groups received daily intraperitoneal injections for 28 consecutive days. Similarly, 8‐week‐old Cldn18‐AT mice were induced with tamoxifen (100 mg/kg, T5648, Sigma) and, 2 weeks post‐induction, randomized into Vehicle (n = 6) and LZQ‐02‐023‐01 (40 mg/kg, n = 6) treatment groups. Treatments were administered daily via intraperitoneal injection for 28 days.
Paraffin sections were initially placed in an oven at 65 °C for 30 min to melt the paraffin. The slides were then immersed in two consecutive xylene baths for 10 min each to dewax the tissue, followed by hydration through a series of graded ethanol solutions. […]

With `Cc1ccc(Nc2ncc3c(n2)N(C)C(=O)N(c2cccc(N)c2)C3)cn1` [LZQ-02-023-01, Three‐(3‐aminophenyl)‐1‐methyl‐7‐((6‐methylpyridin‐3‐yl)amino)‐3,4‐dihydropyrimido [4,5‐d] pyrimidin‐2 (1H)‐one], the half-maximal inhibitory concentration (IC50) in series [1] is over 3000 nM. Also, the LD50 at 24 h in series [2] was found to be 213 mg/kg. In addition, the “Methylation of PIAS3 in cell-free system” value in series [3] was “decreased”. Moreover, in series [4], the “Pathologic grade of lesions and proliferation (H&E, Ki-67)” value was “lower pathologic grade lesions and proliferation”; the “Tumor burden and progression” value is “significantly reduced tumor burden and progression”.

One may read the IC50 as the concentration needed to halve the response being measured. Read a low IC50 as greater potency. A word on the LD50: it is the dose expected to kill half of the subjects tested.

These data come from article PMC12752606, “METTL10‐Mediated PIAS3 Methylation Links Purine Metabolism to Gastric Cancer Progression” (Advanced Science, 2025).
